Test results reported in patent publication US20090197921A1, “USE OF NICOTINE, ANALOGUES, THEREOF, PRECURSORS THEREOF OR D[…] IN THE TREATMENT OF VARIOUS PA[…] CAPABLE OF I[…] a-MSH AD[…] PROPHYLACTIC OR T[…]” (priority 2006, published 2009).

Tests used:
[1] = cited from earlier work
[2] = twenty four hours later
[3] = 2 drops sublingual every hour
From the text: Patient with post traumatic bleeding (hyphema). […] We indicated a dosis of 2 drops sublingual pathway every hour, for the hyphema was of 90% the vision was poor and the intraocular pressure was 40 mmHg despite last treatment. All medicine was suspended and began the new treatment.

[4] = Method: Patient they are in the ninth month of pregnant without diabetes or hypertension or neuropathy antecedents. […] Twenty four hours later Amikacina IM every 12 hours was administered. […] It was decided to administrate nicotine in watery vehicle by sublingual pathway in a concentration of 3 mg/ml.
At the beginning 15 drops were administrated and 30 minutes later 10 drops more. […] Nicotine was administrated during 4 weeks in dosis of 5 drops by sublingual pathway every three hours.

| SMILES | subyacent renal trauma by ischemia/reperfussion ([1]; in vivo) | distant pulmonary trauma ([1]; renal ischemia/reperfussion) | weight increase [2] [grams] | recovery ([3]; after four weeks) [%] | vision ([3]; three weeks later) | pain ([4]; nicotine 3 mg/ml in watery vehicle, sublingual, 15 drops then 10 drops 30 minutes later) | general physical state ([4]; nicotine 3 mg/ml sublingual) |
| --- | --- | --- | --- | --- | --- | --- | --- |
| C/C(=N\N=C(N)N)c1cc(NC(=O)CCCCCCCCC(=O)Nc2cc(/C(C)=N/N=C(N)N)cc(/C(C)=N/N=C(N)N)c2)cc(/C(C)=N/N=C(N)N)c1.Cl.Cl.Cl.Cl [CNI-1493] | does not have effect | partialy reduces |  |  |  |  |  |
| CN1CCCC1c1cccnc1 (stereo not shown) [nicotine] |  |  | 80 | 90 | 20/40 | diminished significantly | improves in the dramatic form |
